The values that follow are results of earlier work, collected in PMC3384292 (Journal of the American Chemical Society, 2012).

This data set addresses thrombin (Homo sapiens, UniProt P00734).

Consider hirudin, for which the “inhibition constant to thrombin” value was “femtomolar”.
